Here are results for 11 compounds from patent publication US20030198617A1, “Pharmaceutical tryptophan containing dipeptide compositions and methods of use thereof” (priority 1993, published 2003).

Like-named read-outs stand apart in the source and are kept apart here. Marks after values point to notes of the source that are not given here.

One assay relates to Staphylococci. The experiment in a line: Antibiotic-sensitivity of staphylococci from skin lesions (MIC, series cultivation). Type of assay: cell-based. The source says: Staphylococci extracted from dermal lesions were initially sensitive to 10 of the 15 antibiotics being assayed (Table 25).
The subject of assay [1] is Mycobacterium tuberculosis. The following applies: in vivo.
For assay [2], the system named is methicillin-resistant Staphylococcal aureus. Conditions: 5 test animals.
The mark [3] stands for this setting: staphylococci from patients After IM862.
Where [4] appears, read: staphylococci from patients Before IM862.

For the compound `CC(=O)OCC1=C(C(=O)O)N2C(=O)[C@@H](NC(=O)Cc3cccs3)[C@H]2SC1` [Keflin], the MIC g/ml against Staphylococci (setting [3]) is on record as 1. ± 0.69^y g/ml.
In the case of `c1ccc([C@H]2CN3CCSC3=N2)cc1` [decaris, reference compound], in assay [1], the “disintegration cavities closed, number of patients” value stood at 10 patients; the “improvement, number of patients” value turned out to be 18; the “no improvement, number of patients” value is given as 3 patients; the “significant improvement, number of patients” value is “only one case”.
Regarding `Cc1nnc(SCC2=C(C(=O)O)N3C(=O)[C@@H](NC(=O)Cn4cnnn4)[C@H]3SC2)s1` [Cefamezin], in the assay with Staphylococci (setting [3]), the MIC g/ml is 1.33 ± 0.53^yy g/ml.
With `Cc1nnc(SCC2=C(C(=O)O)N3C(=O)[C@@H](NC(=O)Cn4cnnn4)[C@H]3SC2)s1` [Kefzol], in the assay with Staphylococci (setting [3]), the MIC g/ml is given as 1.86 ± 0.93^y g/ml.
`CC1(C)S[C@@H]2[C@H](NC(=O)[C@H](N)c3ccccc3)C(=O)N2[C@H]1C(=O)O` [Ampicillin, reference compound]: the results for the MIC g/ml against Staphylococci (setting [3]) and against Staphylococci (setting [4]) were 2.64 ± 0.60^yy g/ml and 8.10 ± 0.49^x g/ml, respectively. For the same compound, the Survivors entry in assay [2] (100 mg/kg Ampicillin, pre-treated with normal saline i.p.) was “no survivors”; in assay [2] (Group 1: IM862 control (0) pretreatment, ampicillin 100 mg/kg 1 hr after inoculation, survivors at 72 hours), 0. In addition, in assay [2] (Group 1: IM862 control (0) pretreatment, ampicillin 100 mg/kg 1 hr after inoculation, 72 hours), the “Percent ip Survivors” value was 0%.
`O=C(N[C@H](CO)[C@H](O)c1ccc([N+](=O)[O-])cc1)C(Cl)Cl` [Levomicetin]: the MIC g/ml in the assay on Staphylococci (setting [3]) is 4.58 ± 0.67^yy g/ml; in the assay with Staphylococci (setting [4]), 9.17 ± 0.36^x g/ml.
For `[H]/N=C(/N)N[C@H]1[C@H](O)[C@@H](O)[C@H](O[C@@H]2O[C@@H](C)[C@](O)(C=O)[C@H]2O[C@@H]2O[C@@H](CO)[C@H](O)[C@@H](O)[C@@H]2NC)[C@@H](N/C(N)=N\[H])[C@@H]1O` [Streptomycin] the same measures were 3.39 ± 0.66^yy g/ml and 6.71 ± 0.59^x g/ml.
For `Cc1onc(-c2ccccc2)c1C(=O)N[C@@H]1C(=O)N2[C@@H]1SC(C)(C)[C@@H]2C(=O)O` [Oxycillin] the same measures were 1.56 ± 0.45^yy g/ml and 5.11 ± 0.63^x g/ml.
For the compound Penicillin, the MIC g/ml is listed as 2.52 ± 0.70^yy g/ml in the assay with Staphylococci (setting [3]) and 9.45 ± 0.28^x g/ml in the assay with Staphylococci (setting [4]).
Consider Gentamycin, for which the MIC g/ml with Staphylococci (setting [3]) is on record as 1.32 ± 0.49^yy g/ml; against Staphylococci (setting [4]) it was 5.47 ± 0.92^x g/ml.
For `NC[C@H]1O[C@H](O[C@H]2[C@H](O)[C@@H](O[C@H]3O[C@H](CO)[C@@H](O)[C@H](N)[C@H]3O)[C@H](N)C[C@@H]2N)[C@H](O)[C@@H](O)[C@@H]1O` [Kanamycin] the same measures were 2.09 ± 0.54^yy g/ml and 6.32 ± 0.58^x g/ml.
